Laboratory results published in US20140162980A1, “NOVEL MICROBIOCIDAL DIOXIME ETHER DERIVATIVES” (SYNGENTA CROP PROTECTION LLC, priority 2010, published 2014).

Assays:
[1] = system: Botryotinia fuckeliana (Botrytis cinerea); assay: Botryotinia fuckeliana (Botrytis cinerea) / liquid culture (gray mould); format: cell-based; settings: Vogels broth, 24° C., 3-4 days after application, read-out: control of Botryotinia fuckeliana (inhibition of growth, photometrically)
Protocol: Botryotinia Fuckeliana (Botrytis cinerea)/Liquid Culture (Gray Mould): Conidia of the fungus from cryogenic storage were directly mixed into nutrient broth (Vogels broth). After placing a DMSO solution of test compound into a 96-well microtiter plate at an application rate 200 ppm, the nutrient broth containing the fungal spores was added. The test plates were incubated at 24° C. and the inhibition of growth was determined photometrically 3-4 days after application.

[2] = system: Phaeosphaeria nodorum (Septoria nodorum); assay: Phaeosphaeria nodorum (Septoria nodorum) / wheat / leaf disc preventative (glume blotch); format: in vivo; settings: Parastagonospora nodorum, foliar, wheat leaf segments cv Kanzler, inoculated 2 days after application, assessed 5-7 days after application, read-out: control of Phaeosphaeria nodorum (percent disease control compared to untreated)
Protocol: Phaeosphaeria Nodorum (Septoria nodorum)/Wheat/Leaf Disc Preventative (Glume Blotch): Wheat leaf segments cv Kanzler were placed on agar in a 24-well plate and sprayed with formulated test compound diluted in water at an application rate of 200 ppm. The leaf disks are inoculated with a spore suspension of the fungus 2 days after application. The inoculated test leaf disks are incubated at 20° C. and 75% relative humidity under a light regime of 12/12 h (light/dark) in a climate cabinet and the activity of a compound is assessed as percent disease control compared to untreated when an appropriate level of disease damage appears in untreated check leaf disks (5-7 days after application).

[3] = system: Blumeria graminis f. sp. tritici (Erysiphe graminis f. sp. tritici); assay: Blumeria graminis f. sp. tritici / wheat / leaf disc preventative (powdery mildew on wheat); format: in vivo; settings: foliar, wheat leaf segments cv. Kanzler, inoculated 1 day after application, assessed 6-8 days after application, read-out: control of Blumeria graminis (percent disease control compared to untreated)
Protocol: Blumeria Graminis f. Sp. Tritici (Erysiphe Graminis f. Sp. Tritici)/Wheat/Leaf Disc Preventative (Powdery Mildew on Wheat):
Wheat leaf segments cv. Kanzler were placed on agar in a 24-well plate and sprayed with the formulated test compound diluted in water at an application rate of 200 ppm. The leaf disks were inoculated by shaking powdery mildew infected plants above the test plates 1 day after application. The inoculated leaf disks were incubated at 20° C. and 60% relative humidity under a light regime of 24 h darkness followed by 12 h/12 h (dark/light) in a climate chamber and the activity of a compound was assessed as percent disease control compared to untreated when an appropriate level of disease damage appears on untreated check leaf segments (6-8 days after application). The following compounds gave at least 80% control of Blumeria graminis: […]

[4] = system: Puccinia recondita f. sp. tritici; assay: Puccinia recondita f. sp. tritici / wheat / leaf disc preventative (brown rust); format: in vivo; settings: foliar, wheat leaf segments cv Kanzler, inoculated 1 day after application, assessed 7-9 days after application, read-out: control of Puccinia recondita f. sp. tritici, preventative (percent disease control compared to untreated)
Protocol: Puccinia Recondita f. Sp. Tritici/Wheat/Leaf Disc Preventative (Brown Rust): Wheat leaf segments cultivated variety (cv) Kanzler were placed on agar in 24-well plates and sprayed with formulated test compound diluted in water at an application rate of 200 ppm. The leaf disks were inoculated with a spore suspension of the fungus 1 day after application. The inoculated leaf segments were incubated at 19° C. and 75% relative humidity under a light regime of 12/12 h (light/dark) in a climate cabinet and the activity of a compound was assessed as percent disease control compared to untreated when an appropriate level of disease damage appears in untreated check leaf segments (7-9 days after application).

Pyrenophora teres = Pyrenophora teres / barley / leaf disc preventative (net blotch); format: in vivo; settings: foliar, barley leaf segments cv Hasso, inoculated two days after application, assessed 5-7 days after application, read-out: control of Pyrenophora teres (disease control compared to untreated)
Protocol: Pyrenophora Teres/Barley/Leaf Disc Preventative (Net Blotch): Barley leaf segments cv Hasso are placed on agar in a 24-well plate and sprayed with formulated test compound diluted in water at an application rate of 200 ppm. The leaf segments are inoculated with a spore suspension of the fungus two days after application of the test solution. The inoculated leaf segments are incubated at 20° C. and 65% relative humidity under a light regime of 12/12 h (light/dark) in a climate cabinet and the activity of a compound is assessed as disease control compared to untreated when an appropriate level of disease damage appears in untreated check leaf segments (5-7 days after application).

[5] = system: Puccinia recondita f. sp. tritici; assay: Puccinia recondita f. sp. tritici / wheat / leaf disc curative (brown rust); format: in vivo; settings: foliar, 200 ppm applied 1 day after inoculation, wheat leaf segments cv Kanzler, assessed 6-8 days after application, read-out: control of Puccinia recondita f. sp. tritici, curative (percent disease control compared to untreated)
Protocol: Puccinia Recondita f. Sp. Tritici/Wheat/Leaf Disc Curative (Brown Rust): Wheat leaf segments cv Kanzler were placed on agar in 24-well plates. The leaf segments were inoculated with a spore suspension of the fungus. The plates were stored in darkness at 19° C. and 75% relative humidity. The formulated test compound diluted in water was applied at an application rate of 200 ppm 1 day after inoculation.

Pythium ultimum = Pythium ultimum / liquid culture (seedling damping off); format: cell-based; settings: Globisporangium ultimum, PDB potato dextrose broth, 24° C., 2-3 days after application, read-out: control of Pythium ultimum (inhibition of growth, photometrically)
Protocol: Pythium Ultimum/Liquid Culture (Seedling Damping Off): Mycelia fragments and oospores of a newly grown liquid culture of the fungus were directly mixed into nutrient broth (PDB potato dextrose broth). After placing a DMSO solution of test compound into a 96 well microtiter plate at an application rate 200 ppm, the nutrient broth containing the fungal mycelia/spore mixture was added. The test plates were incubated at 24° C. and the inhibition of growth was determined photometrically 2-3 days after application.

[6] = system: Thanatephorus cucumeris (Rhizoctonia solani); assay: Thanatephorus cucumeris (Rhizoctonia solani) / liquid culture (foot rot, damping-off); format: cell-based; settings: PDB potato dextrose broth, 24° C., 3-4 days after application, read-out: control of Thanatephorus cucumeris (inhibition of growth, photometrically)
Protocol: Thanatephorus Cucumeris (Rhizoctonia solani)/Liquid Culture (Foot Rot, Damping-Off): Mycelia fragments of a newly grown liquid culture of the fungus are directly mixed into nutrient broth (PDB potato dextrose broth). After placing a DMSO solution of the test compounds into a 96-well microtiter plate at an application rate 200 ppm, the nutrient broth containing the fungal material was added. The test plates were incubated at 24° C. and the inhibition of growth was determined photometrically 3-4 days after application.

[7] = system: Magnaporthe grisea (Pyricularia oryzae); assay: whole plant or invertebrate; format: in vivo; settings: foliar, read-out: control of Magnaporthe grisea (percent disease control compared to untreated)

CSc1cc(C)nc2c1CCC/C2=N\OCCCO/N=C1\CCCc2c(SC)cc(C)nc21 [P.43]
≥ 80%: inhibition at 200 ppm [1]

Cc1c2c(nc3ccccc13)/C(=N/OCCCO/N=C1\CCCc3c1nc1ccccc1c3C)CCC2 [P.25]
≥ 80%: pest or weed control at 200 ppm [2] | inhibition at 200 ppm [1] | pest or weed control at 200 ppm [3] | pest or weed control at 200 ppm [4] | pest or weed control at 200 ppm (Pyrenophora teres)

Cc1ccc2c(n1)/C(=N/OCC1(CO/N=C3\CCCc4ccc(C)nc43)CC1)CCC2 [P.03]
≥ 80%: pest or weed control at 200 ppm [2] | inhibition at 200 ppm [1] | pest or weed control at 200 ppm [3] | pest or weed control at 200 ppm [4] | pest or weed control at 200 ppm (Pyrenophora teres) | pest or weed control at 200 ppm [5] | inhibition at 200 ppm (Pythium ultimum)

Cc1ccc2c(n1)/C(=N/OCC(O)CO/N=C1\CCCc3ccc(C)nc31)CCC2 (stereo not shown) [P.11]
≥ 80%: pest or weed control at 200 ppm [2] | pest or weed control at 200 ppm [4] | pest or weed control at 200 ppm (Pyrenophora teres) | pest or weed control at 200 ppm [5]

CC(C)(CO/N=C1\CCCc2cc3c(nc21)CCCC3)CO/N=C1\CCCc2cc3c(nc21)CCCC3 [P.50]
≥ 80%: pest or weed control at 200 ppm [2] | inhibition at 200 ppm [1] | pest or weed control at 200 ppm [3] | pest or weed control at 200 ppm (Pyrenophora teres) | inhibition at 200 ppm [6]

Cc1ccc2c(n1)/C(=N/OCC(Cl)CO/N=C1\CCCc3ccc(C)nc31)CCC2 (stereo not shown) [P.24]
≥ 80%: pest or weed control at 200 ppm [2] | inhibition at 200 ppm [1] | pest or weed control at 200 ppm [3] | pest or weed control at 200 ppm [4] | pest or weed control at 200 ppm (Pyrenophora teres) | pest or weed control at 200 ppm [5] | inhibition at 200 ppm (Pythium ultimum)

COCc1cc(C)c2c(n1)/C(=N/OCC(C)(C)CO/N=C1\CCCc3ccc(C)nc31)CCC2 [P.42]
≥ 80%: pest or weed control at 200 ppm [2] | inhibition at 200 ppm [1] | pest or weed control at 200 ppm [3] | pest or weed control at 200 ppm [7] | pest or weed control at 200 ppm [4] | pest or weed control at 200 ppm (Pyrenophora teres) | pest or weed control at 200 ppm [5] | inhibition at 200 ppm (Pythium ultimum)

Cc1ccc2c(n1)/C(=N/OCC(C)(C)CO/N=C1\CC(C)Cc3ccc(-c4ccc(Cl)cc4)nc31)CCC2 (stereo not shown) [P.22]
≥ 80%: pest or weed control at 200 ppm [2] | inhibition at 200 ppm [1]

Cc1ccc2c(n1)/C(=N/OCC(C)(C)CO/N=C1\CCc3ccc(C)nc31)CCC2 [P.08]
≥ 80%: inhibition at 200 ppm [1] | pest or weed control at 200 ppm [3]

Cc1ccc2c(n1)/C(=N/OCCCO/N=C1\CCCc3ccc(C(F)(F)F)nc31)CCC2 [P.47]
≥ 80%: pest or weed control at 200 ppm [2] | inhibition at 200 ppm [1] | pest or weed control at 200 ppm [3] | pest or weed control at 200 ppm [4] | pest or weed control at 200 ppm (Pyrenophora teres) | pest or weed control at 200 ppm [5]

Cc1c2c(nc3ccccc13)/C(=N/OCC1(CO/N=C3\CCCc4c3nc3ccccc3c4C)CC1)CCC2 [P.27]
≥ 80%: pest or weed control at 200 ppm [2] | inhibition at 200 ppm [1] | pest or weed control at 200 ppm [3] | pest or weed control at 200 ppm (Pyrenophora teres)

Cc1ccc2c(n1)/C(=N/OCC(F)CO/N=C1\CCCc3ccc(C)nc31)CCC2 (stereo not shown) [P.14]
≥ 80%: pest or weed control at 200 ppm [2] | inhibition at 200 ppm [1] | pest or weed control at 200 ppm [3] | pest or weed control at 200 ppm [4] | pest or weed control at 200 ppm [5] | inhibition at 200 ppm (Pythium ultimum)

Cc1c2c(nc3ccccc13)/C(=N/OCC(C)(C)CO/N=C1\CCCc3c1nc1ccccc1c3C)CCC2 [P.28]
≥ 80%: pest or weed control at 200 ppm [2] | inhibition at 200 ppm [1] | pest or weed control at 200 ppm [3] | pest or weed control at 200 ppm (Pyrenophora teres)

Cc1cc(C(F)F)c2c(n1)/C(=N/OCC1(CO/N=C3\CCCc4c(C(F)F)cc(C)nc43)CC1)CCC2 [P.45]
≥ 80%: pest or weed control at 200 ppm [2] | inhibition at 200 ppm [1] | pest or weed control at 200 ppm [3] | pest or weed control at 200 ppm [7] | pest or weed control at 200 ppm [4] | pest or weed control at 200 ppm (Pyrenophora teres) | pest or weed control at 200 ppm [5]

Cc1cc(Cl)c2c(n1)/C(=N/OCC1(CO/N=C3\CCCc4c(Cl)cc(C)nc43)CC1)CCC2 [P.12]
≥ 80%: inhibition at 200 ppm [1] | inhibition at 200 ppm [6]

FCc1ccnc2c1CCC/C2=N\OCCCO/N=C1\CCCc2c(CF)ccnc21 [P.36]
≥ 80%: inhibition at 200 ppm [1]

Cc1cc(CF)c2c(n1)/C(=N/OCCCO/N=C1\CCCc3c(CF)cc(C)nc31)CCC2 [P.48]
≥ 80%: pest or weed control at 200 ppm [2] | inhibition at 200 ppm [1] | pest or weed control at 200 ppm [3] | pest or weed control at 200 ppm [7] | pest or weed control at 200 ppm [4] | pest or weed control at 200 ppm (Pyrenophora teres) | pest or weed control at 200 ppm [5] | inhibition at 200 ppm (Pythium ultimum)

Cc1ccc2c(n1)/C(=N/OCC(C)(C)CO/N=C1\CCc3ccc(Cl)nc31)CCC2 [P.01]
≥ 80%: inhibition at 200 ppm [1]

Cc1cc(CF)nc2c1CCC/C2=N\OCC(C)(C)CO/N=C1\CCCc2c(C)cc(CF)nc21 [P.34]
≥ 80%: pest or weed control at 200 ppm [2] | inhibition at 200 ppm [1] | pest or weed control at 200 ppm [7] | pest or weed control at 200 ppm (Pyrenophora teres) | pest or weed control at 200 ppm [5]
